Tests used:
Type in all cases: functional
Settings in all cases: Homo sapiens, read-out: ED50 (the source's name)
MCF7 = assay: Cytotoxic concentration required to inhibit 50% cell growth in MCF-7 breast carcinoma cell lines
A549 = assay: Cytotoxic concentration required to inhibit 50% cell growth in A-549 lung carcinoma cell lines
SK-MEL-5 = assay: Cytotoxic concentration required to inhibit 50% cell growth in SKMEL-5 melanoma cell lines
HT-29 = assay: Cytotoxic concentration required to inhibit 50% cell growth in HT-29 colon adenocarcinoma cell lines
MLM = assay: Cytotoxic concentration required to inhibit 50% cell growth in MLM melanoma cell lines

Row | Compound | EC50 (MCF7) | EC50 (A549) | EC50 (SK-MEL-5) | EC50 (HT-29) | EC50 (MLM)
1 | COc1cc(/C=C/c2ccc(N)cc2)cc(OC)c1OC | > 25 µM | > 25 µM | > 25 µM | > 25 µM | > 25 µM
2 | COc1ccc(/C=C\c2cc(OC)c(OC)c(OC)c2)cc1O [COMBRETASTATIN A4] | 3.8e-06 µM |  |  | 1.2e-05 µM | 1.4e-05 µM
3 | COc1ccc(C(=O)Nc2cc(OC)cc(OC)c2)cc1 | > 25 µM | > 25 µM | > 25 µM | > 25 µM | > 25 µM
4 | COc1cc(OC)c(/C=C/c2ccccc2)c(OC)c1 | > 25 µM | > 25 µM | > 25 µM | > 25 µM | > 25 µM
5 | COc1cc(/C=C/c2ccc([N+](=O)[O-])cc2)cc(OC)c1OC | > 25 µM | > 25 µM | > 25 µM | > 25 µM | > 25 µM
6 | COc1cc(/C=C/c2ccc(Br)cc2)cc(OC)c1OC | 9.14 µM | 6.47 µM | 6.53 µM | 12.7 µM | 5.13 µM
7 | COc1cc(CCc2ccccc2)cc(OC)c1OC | > 25 µM | > 25 µM | > 25 µM | > 25 µM | > 25 µM
8 | COc1cc(/C=C/c2ccc(O)cc2)cc(OC)c1OC | 18.6 µM | > 25 µM | 11.6 µM | > 25 µM | 24.2 µM
9 | COc1cc(/C=C/c2cc(OC)c(OC)c(OC)c2)cc(OC)c1OC | > 25 µM | > 25 µM | > 25 µM | > 25 µM | > 25 µM
10 | COc1cc(CCc2ccncc2)cc(OC)c1OC | > 25 µM | > 25 µM | > 25 µM | > 25 µM | > 25 µM
11 | COc1cc(/C=C/c2ccccn2)cc(OC)c1OC | > 25 µM | > 25 µM | > 25 µM | > 25 µM | > 25 µM
12 | COc1cc(CCc2ccc(OC(C)=O)cc2)cc(OC)c1OC | > 25 µM | 19 µM | > 25 µM | > 25 µM | > 25 µM
13 | COc1ccccc1/C=C\c1cc(OC)c(OC)c(OC)c1 | 1.3 µM | 1.1 µM | 1.2 µM | 0.87 µM | 8.6 µM
14 | COc1ccc(/C=C\c2ccc(OC)c(OC)c2OC)cc1 | 0.23 µM | 0.97 µM | 1.1 µM | 1 µM | 10.9 µM
15 | COc1ccccc1/C=C/c1cc(OC)c(OC)c(OC)c1 | 18 µM | 12.2 µM | 13.5 µM | 12.1 µM | > 25 µM
16 | COc1cc(CCc2cc(OC)c(OC)c(OC)c2)cc(OC)c1OC | > 25 µM | > 25 µM | > 25 µM | > 25 µM | > 25 µM
17 | COc1ccc(NC(=O)c2cc(OC)cc(OC)c2)cc1 | 5.47 µM | 9.02 µM | 11.9 µM | 14.5 µM | > 25 µM
18 | COc1cccc(/C=C/c2cc(OC)c(OC)c(OC)c2)c1 | 12.2 µM | 9.8 µM | 0.5 µM | 7.3 µM | > 25 µM
19 | COc1cc(/C=C\c2cccnc2)cc(OC)c1OC | 14.7 µM | 13.7 µM | 6 µM | 9.8 µM | > 25 µM
20 | COc1ccc(CCc2ccccc2)cc1OC | > 25 µM | > 25 µM | > 25 µM | > 25 µM | > 25 µM

Row | Compound | EC50 (MCF7) | EC50 (A549) | EC50 (SK-MEL-5) | EC50 (HT-29) | EC50 (MLM)
21 | COc1cc(/C=C\c2ccc(O)cc2)cc(OC)c1OC | 5.7 µM | 12.7 µM | 2.27 µM | 1.75 µM | 12.6 µM
22 | COc1cc(/C=C/c2ccc(OC)c(OC)c2OC)cc(OC)c1OC | 14.7 µM | 12.5 µM | 10.6 µM | 10.3 µM | 23.9 µM
23 | COc1ccc(CNc2cc(OC)c(OC)c(OC)c2)cc1OC | > 25 µM | > 25 µM | > 25 µM | > 25 µM | > 25 µM
24 | COc1cc(/C=C/c2ccc(OC)c(OC)c2)cc(OC)c1 [(E)-3,4,3',5'-TETRAMETHOXYSTILBENE] | > 25 µM | > 25 µM | > 25 µM | > 25 µM | > 25 µM
25 | COc1ccc(/C=C/c2cc(OC)c(OC)c(OC)c2)c(Cl)c1 | > 25 µM | > 25 µM | > 25 µM | > 25 µM | > 25 µM
26 | COc1cc(/C=C/c2cc(OC)c(OC)c(OC)c2)cc(OC)c1 | > 25 µM | > 25 µM | > 25 µM | > 25 µM | > 25 µM
27 | COc1cc(/C=C/c2ccccc2)cc(OC)c1OC | > 25 µM | > 25 µM | > 25 µM | > 25 µM | > 25 µM
28 | COc1ccc(CNc2cc(OC)cc(OC)c2)cc1 | > 25 µM | > 25 µM | > 25 µM | > 25 µM | > 25 µM
29 | COc1ccc(C(=O)Nc2cc(OC)c(OC)c(OC)c2)cc1OC | > 25 µM | > 25 µM | > 25 µM | > 25 µM | > 25 µM
30 | COc1cc(/C=C/c2ccc(O[Si](C)(C)C(C)(C)C)cc2)cc(OC)c1OC | > 25 µM | > 25 µM | > 25 µM | > 25 µM | > 25 µM
31 | COc1cc(CCc2cccnc2)cc(OC)c1OC | > 25 µM | 12.2 µM | > 25 µM | > 25 µM | > 25 µM
32 | COc1cc(/C=C/c2ccncc2)cc(OC)c1OC | > 25 µM | > 25 µM | > 25 µM | > 25 µM | > 25 µM
33 | COc1ccc(C(=O)Nc2cc(OC)c(OC)c(OC)c2)cc1 | > 25 µM | > 25 µM | > 25 µM | > 25 µM | > 25 µM
34 | COc1cc(NC(=O)c2cc(OC)c(OC)c(OC)c2)cc(OC)c1OC | > 25 µM | > 25 µM | > 25 µM | > 25 µM | > 25 µM
35 | COc1cc(/C=C\c2ccc(O[Si](C)(C)C(C)(C)C)cc2)cc(OC)c1OC | 7.29 µM | 11 µM | 7.59 µM | 10.6 µM | 17.2 µM
36 | COc1cc(CCc2ccc(N)cc2)cc(OC)c1OC | 11.9 µM | 12.2 µM | 12.7 µM | 24.6 µM | > 25 µM
37 | COc1cccc2c1C(=O)c1c(O)c3c(c(O)c1C2=O)C[C@@](O)(C(=O)CO)C[C@@H]3O[C@H]1C[C@H](N)[C@H](O)[C@H](C)O1 [DOXORUBICIN] | 0.031 µM | 0.029 µM | 0.032 µM | 0.055 µM | 0.13 µM
38 | COc1cc(CCc2ccc(OC)c(OC)c2OC)cc(OC)c1OC | > 25 µM | > 25 µM | > 25 µM | > 25 µM | > 25 µM
39 | COc1ccc(/C=C/c2ccccc2)c(OC)c1OC | > 25 µM | > 25 µM | > 25 µM | > 25 µM | > 25 µM
40 | COc1cc(CCc2cc(OC)c(OC)c(OC)c2)cc(OC)c1 | > 25 µM | > 25 µM | > 25 µM | > 25 µM | > 25 µM

From ChEMBL document CHEMBL1125188, “Synthesis and evaluation of stilbene and dihydrostilbene derivatives as potential anticancer agents that inhibit tubulin polymerization” (J Med Chem, 1991)
